# Test results taken from patent US20200032313A1 (SANYO CHEMICAL INDUSTRIES, LTD., priority 2017, published 2020).
# Where two headings read alike, the source gives them in different places.
# Legend:
# Type in all cases: cell-based
# [1] = test system: luciferase-expressing Saccharomyces cerevisiae; details: S. cerevisiae, 8 hours culturing after addition
# Protocol: Transformation was performed using Saccharomyces cerevisiae distributed by Biotechnology Center, National Institute of Technology and Evaluation, whereby luciferase-expressing microorganisms were produced. A vector pYES2 (Thermo Fisher Scientific) was digested with HindIII and XbaI, and a synthetic (synthesized by Thermo Fisher Scientific on commission) a factor-luciferase gene having a HindIII cut site at one end and an XbaI cut site at the other end was inserted into the vector. The microorganisms were transformed by the a factor-luciferase gene-inserted pYES2 according to the method described in an instruction manual of pYES2. The luciferase-expressing microorganisms were inoculated using a platinum loop into YPD broth (yeast extract 1 wt % (Difco), bacto peptone 2 wt % (Difco), and glucose 2 wt %) and were shake-cultured at 200 rpm at 30° C. for 15 hours. Then, the thus-obtained broth was resuspended in 125-ml YPD broth (containing 100 mM potassium hydrogen phosphate buffer; pH: 6) to a final optical density (hereinafter sometimes abbreviated as “OD”) of 0.1 OD/ml.
# The optical density of the broth was measured under the same conditions as for “Method of measuring the optical density of broth” described later.
# Further, the resuspended broth was continued to be shake-cultured at 1100 rpm at 30° C. for about 17 hours until OD was 20 to 30. When OD was 20 to 30, the broth was centrifuged (1500 g, 10 min), and resuspended in 125-ml galactose-inducing broth (the YPD broth containing 100 mM potassium phosphate buffer and also containing 2% galactose instead of glucose; pH: 6), followed by culturing at 1100 rpm at 30° C. for 2 hours.
# Subsequently, the surfactant described in Table 1 was added to the broth in the amount (wt %) described in Table 1, and the broth was cultured at 1100 rpm at 30° C. for 8 hours. Subsequently, the broth was sampled for measuring the optical density (optical density at the end of culturing) and for measuring the secretion efficiency. Then, these samples were subjected to centrifugation using a centrifuge to separate bacteria and the supernatant from the broth. Then, the supernatant and the bacteria were collected.
# (§1) The optical density of the broth containing the microorganisms collected by sampling was measured in a quartz cell (light path of 1 cm) using a spectrophotometer (UV-1700, Shimadzu Corporation).
# (§2) The broth was centrifuged at 1500 rpm at 4° C. for 5 minutes, and the supernatant was discarded. The precipitate was resuspended in a saline solution in an amount equal to the amount of the sample solution, and was diluted in the saline solution to obtain an appropriate absorbance (0.1 to 0.8). Then, the absorbance at 600 nm was measured. The optical density of the broth was calculated using the following mathematical formula (1).
# (§3) Broth optical density(OD)=(Absorbance of diluted broth at 600 nm)×dilution factor of broth (Mathematical formula 1)
# [2] = test system: acid phosphatase-expressing Candida boidinii; details: 8 hours culturing after addition
# Protocol: (§4) Candida boidinii was transformed and acid phosphatase-expressing microorganisms were produced based on a method described in a known document (Regulation and evaluation of five methanol-inducible promoters in the methylotrophic yeast Candida boidinii, H. Yurimoto et al., Biochimica et Biophysica Acta, 1493, 2000, pp. 56-63). The acid phosphatase-expressing microorganisms were inoculated using a platinum loop into BMGY broth, and were shake-cultured at 200 rpm at 30° C. for 15 hours. Then, the thus-obtained broth was resuspended in 125-ml BMGY broth to a final OD of 0.1 OD/ml. Further, the resuspended broth was continued to be shake-cultured at 1100 rpm at 30° C. for about 17 hours until OD was 2 to 5. When OD was 2 to 5, methanol was added to a concentration of 2 v/v %, followed by culturing at 1100 rpm at 30° C. for 2 hours.
# (§5) Two hours later, the surfactant described in Table 3 was added to the broth in the weight described in Table 3, and the broth was cultured at 1100 rpm at 30° C. for 8 hours. Eight hours later, the broth was sampled for measuring the optical density (optical density at the end of culturing), and was subjected to centrifugation using a centrifuge to separate bacteria and the supernatant from the broth. Then, the supernatant and the bacteria were collected.
# as §1, §2, §3
# [3] = test system: acid phosphatase-expressing Candida boidinii; details: 8 hours
# Protocol: as §4, §5
# Then, 50 mM acetic acid NaBf (pH 4.0) was added to the bacteria, followed by centrifugation, whereby the bacteria were washed. The washed bacteria were resuspended in 50 mM acetic acid NaBf (pH 4.0), whereby a sample for measuring the acid phosphatase activity on the bacterial surface was obtained.
# The supernatant obtained in each of Examples 23 to 33 and Comparative Example 3 was mixed with a 2 M sodium acetate buffer (pH 4.0) in an amount of 5 μl that is 1/40 of the amount of the supernatant. The buffer-containing supernatant or the sample for measuring the bacterial surface obtained in each of Examples 23 to 33 was mixed with a substrate solution (50 mM sodium acetate buffer containing 0.64 mg/ml of p-nitrophenylphosphate; pH 4.0) at a capacity ratio of 1:1, and the mixture was reacted at 35° C. for 10 minutes.
# After the reaction, a 10% solution of trichloroacetic acid in an amount equal to the amount of the reaction solution was added to the reaction solution to terminate the reaction. To develop a color, a saturated sodium carbonate solution in an amount equal to the total amount of the reaction solution was added to the solution in which the reaction has been terminated. The color-developed solution was centrifuged at 1500×g for 5 minutes to remove the insoluble fraction, and the absorbance at 420 nm was measured using a microplate reader “PowerWave” (Biotek). The reference wavelength was set to 630 nm.
# The acid phosphatase activity of each of the supernatant and the sample for measuring the bacterial surface was calculated from the following formula. The thus-obtained acid phosphatase activity of the supernatant was regarded as the “acid phosphatase activity of secreted and produced useful substance” and the acid phosphatase activity of the sample for measuring the bacterial surface was regarded as the “acid phosphatase activity of useful substance remaining on bacterial surface”.
# Acid phosphatase activity=((Abs 420 nm)−(Abs 630 nm))/(optical density at the end of culturing)
# For each of Examples 23 to 33 and Comparative Example 3, the obtained value of the “acid phosphatase activity of secreted and produced useful substance” and the obtained value of the “acid phosphatase activity of useful substance remaining on bacterial surface” were used to calculate the secretion efficiency from the following mathematical formula.
# Secretion efficiency (%)=100×(Acid phosphatase activity of secreted and produced useful substance)/(total acid phosphatase activity) […]
# [4] = surfactant 0.03 wt % of broth, Examples 2, 5-11
# [5] = surfactant 0.03 wt % of broth, Examples 24, 27-33
# [6] = surfactant 0.003 wt % of broth, Example 23
# [7] = surfactant 0.3 wt % of broth, Example 25
# [8] = surfactant 3 wt % of broth, Example 26
Compound,"Optical density (OD) of broth at the end of culturing [1, 4]","Optical density (OD) of broth at the end of culturing [2, 5]","Secretion efficiency (%) [3, 5]",further results
sodium polyoxyethylene (average 3 mol adduct) lauryl ether acetate [Surfactant (A1-2)],22.1 OD,5.68 OD,48%,
sodium (2-dodecylamino)ethanesulfonate [Surfactant (A3-1)],22.0 OD,5.7 OD,57%,
"CCCCCCCCCCCCCCCCOP(=O)([O-])OCC[N+](C)(C)C [Surfactant (A3-4), miltefosine, reference compound]",21.1 OD,7.91 OD,54%,
CCCCCCCCCCCCNCCC(=O)O,21.2 OD,6.0 OD,63%,"Optical density (OD) of broth at the end of culturing ([1]; surfactant 0.003 wt % of broth, Example 1): 23.5 OD; Optical density (OD) of broth at the end of culturing ([1]; surfactant 0.3 wt % of broth, Example 3): 18.2 OD; Optical density (OD) of broth at the end of culturing ([1]; surfactant 3 wt % of broth, Example 4): 10.9 OD; Optical density (OD) of broth at the end of culturing [2, 6]: 5.1 OD; Optical density (OD) of broth at the end of culturing [2, 7]: 2.7 OD; Optical density (OD) of broth at the end of culturing [2, 8]: 2.7 OD; Secretion efficiency (%) [3, 6]: 49%; Secretion efficiency (%) [3, 7]: 77%; Secretion efficiency (%) [3, 8]: 79%"
"CCCCCCCCCCCC[N+](C)(C)CC(=O)[O-] [Surfactant (A3-5), betaine lauryldimethylaminoacetate]",20.4 OD,7.33 OD,61%,
"CCCCCCCCCCCC[N+](C)(C)CCCS(=O)(=O)O.[OH-] [Surfactant (A3-3), dodecyldimethyl(3-sulfopropyl)ammonium hydroxide]",21.8 OD,8.07 OD,54%,
sodium polyoxyethylene (average 2.5 mol adduct) lauryl ether sulfate [Surfactant (A1-1)],21.9 OD,5.77 OD,49%,
"CCCCCCCCCCCC[N+](C)(C)C.[Cl-] [Surfactant (A2-1), lauryl trimethyl ammonium chloride]",13.8 OD,3.94 OD,61%,
